Source: publication PMC8583417, “Evaluation of the Antimicrobial Efficacy of N-Acetyl-L-Cysteine, Rhamnolipids, and Usnic Acid—Novel Approaches to Fight Food-Borne Pathogens” (International Journal of Molecular Sciences, 2021)

How the values were obtained:
[1] = tested on: S. aureus 1241; experiment: MIC for planktonic cell growth (A625nm); format: cell-based, Staphylococcus aureus; conditions: ≥80% inhibition, 24 h
Procedure: (§1) Ten concentrations of NAC, RLs, and UA were tested to determine the minimum inhibitory concentration for planktonic growth, and subsequently, the six highest concentrations were applied on preformed biofilms to evaluate the biofilm eradication ability of the compounds. MIC was defined as the lowest substance concentration able to inhibit at least 80% of microbial growth (MICPC80 for planktonic cells, MICBC80 for further growth of biofilm cells), inhibit 80% of metabolic activity (MICBM80 for biofilm metabolic activity, MICMPB80 for metabolic activity of preformed biofilm), prevent biofilm formation by at least 80% (MICBF80 for biofilm formation), or reduce a preformed biofilm by at least 80% (MICBR80 for biofilm reduction). The results of MICs are summarized in Table 1 (planktonic cells) and Table 2 (biofilm-associated cells).
(§2) The determination of MICs was performed according to Chlumsky et al.. Briefly, 96-well flat-bottomed microtiter plates were inoculated with 75 µL (for biofilm formation) or 100 µL (for preformed biofilm) of bacterial suspension (A625nm 0.08 to 0.1) in technical triplicates and were then carefully mixed with the dilution series of the test substances (24 h cultivation at 25 °C for S. Infantis, 37 °C for other strains) or were directly cultivated to preform biofilms (18 h). For a positive control of bacterial growth, the inoculum was mixed with a pure sterile medium. […] To evaluate planktonic cells growth (MICPC80) and further growth of biofilm cells (MICBC80), the optical density of the content of the microtiter plates was measured spectrophotometrically at 625 nm before and after 24 h (for biofilm formation) of cultivation or before and after additional 20 h incubation with the tested compound (for preformed biofilm). […] To evaluate the inhibition of biofilm formation (MICBF80) and reduction in preformed biofilms (MICBR80), biomass was quantified using crystal violet staining, and its metabolic activity (MICBM80 and MICMPB80) was estimated by using the MTT (thiazyl tetrazolium bromide, Sigma-Aldrich, USA) reduction assay, both measured spectrophotometrically at 595 nm.
(§3) All inhibitions were calculated using the formula of Chlumsky et al. below (Equation (1)):(1) A625(595)nm inhibition (%)=A625(595)nm (control) – A625(595)nm(natural substance)/A625(595)nm (control)× 100 where A625(595)nm (control) is the absorbance of bacterial suspension/biofilm itself, and A625(595)nm(natural substance) is the absorbance of the bacterial suspension/biofilm with the added natural substance (NAC, RLs, and UA).
(§4) When the minimum inhibitory concentration could not be determined, the MIC was established as >the highest tested concentration for NAC, RLs, and UA.

[2] = tested on: S. aureus 816; experiment: MIC for planktonic cell growth (A625nm); format: cell-based, Staphylococcus aureus; conditions: ≥80% inhibition, 24 h
Procedure: as §1, §2, §3, §4

[3] = tested on: E. coli 693/17; experiment: MIC for biofilm formation (crystal violet staining); format: cell-based, Escherichia coli; conditions: for MICBF80: ≥80% prevention, 24 h
Procedure: as §1
The determination of MICs was performed according to Chlumsky et al.. Briefly, 96-well flat-bottomed microtiter plates were inoculated with 75 µL (for biofilm formation) or 100 µL (for preformed biofilm) of bacterial suspension (A625nm 0.08 to 0.1) in technical triplicates and were then carefully mixed with the dilution series of the test substances (24 h cultivation at 25 °C for S. Infantis, 37 °C for other strains) or were directly cultivated to preform biofilms (18 h). For a positive control of bacterial growth, the inoculum was mixed with a pure sterile medium. Furthermore, the sterile medium was included in the plate as a marker of potential microbial contamination. To evaluate planktonic cells growth (MICPC80) and further growth of biofilm cells (MICBC80), the optical density of the content of the microtiter plates was measured spectrophotometrically at 625 nm before and after 24 h (for biofilm formation) of cultivation or before and after additional 20 h incubation with the tested compound (for preformed biofilm). The difference of A625nm was considered as a measure of the ability of cells to grow in the presence of the tested substances. To evaluate the inhibition of biofilm formation (MICBF80) and reduction in preformed biofilms (MICBR80), biomass was quantified using crystal violet staining, and its metabolic activity (MICBM80 and MICMPB80) was estimated by using the MTT (thiazyl tetrazolium bromide, Sigma-Aldrich, USA) reduction assay, both measured spectrophotometrically at 595 nm.
as §3, §4

[4] = tested on: E. coli 693/17; experiment: CLSM analysis, biofilm removal (preformed biofilm); format: cell-based, Escherichia coli; conditions: for Thickness (µm) subCBM80: substance at subinhibitory concentration
Procedure: (§5) Biofilm prevention and removal analyses were performed using previously determined minimum inhibitory and subinhibitory concentrations for metabolic activity (MICBM80, subCBM80; MICMPB80, subCMPB80) of NAC, RLs, and UA specific for each tested strain. Selected concentrations were used to evaluate the inhibition of biofilm formation (biofilm prevention) and the reduction in previously formed biofilms (biofilm removal) for the same set of microorganisms, with the exception of S. Infantis, which was excluded from the analysis due to its inability to form biofilm in the selected microtiter plate. Biofilm prevention and removal were observed using CLSM with specific staining to distinguish between live and membrane-compromised cells. Images were analyzed to evaluate (i). the total volume of the biomass, (ii). ratios of live and membrane-compromised cells, and (iii). to calculate biofilm volume reduction for individual organisms after the respective treatment types. The total biofilm volume was normalized by the area of the well and expressed as an average biofilm thickness. Complete data are provided in Supplementary Materials (Tables S1–S8).
(§6) At first, bacterial suspensions were cultivated in microtiter plates to produce overnight biofilms (18 h). […] cells were then washed out, and the remaining biofilms were further cultivated for an additional 20 h with selected compounds. Following biofilm cultivation, biomass was observed using CLSM with live/membrane-compromised cell staining. Biomass images from biofilm removal treatments were similar to results from biofilm prevention, where biomass was highly diversified across the bacterial species and strains. Visually, biomass images were fairly consistent within the quadruplicates for each tested organism. Non-treated biofilms of S. aureus contained consistent biomass spread across the well (S. aureus 816) or grown around the edges (S. aureus 1241). […] PI staining identified membrane-compromised cells spread across S. aureus 816 biomass and incorporated in the edge of biomass and/or in the central part of the well (Figure 4B,C). […] Membrane-compromised cells appeared contained around the edges (S. aureus 1241), disturbed across the well (in both strains of L. monocytogenes), or in separated biomass in the central part of the well (in both strains of E. coli when treated with the subinhibitory concentration of RLs) (Figure 4D,E).
(§7) For both inhibition and reduction of biofilms, overnight cultures from BHI were diluted in TSB + 1% Glc to reach an absorbance of 0.08 to 0.1 at 625 nm. The inoculum (150 µL) was transferred into wells of the 96-well flat-bottomed Ibidiμ-Plate (Ibidi, Gräfelfing, Germany) and mixed with 150 µL of each of the three tested substances in technical quadruplicates, followed by incubation at 37 °C for 24 h. Simultaneously, the prepared bacterial suspensions were inoculated to an additional microtiter plate (200 µL) and allowed to form biofilm overnight (18 h at 37 °C). After the incubation, the content of the well was drained off, and 200 µL of each of the three tested substances was added to the plate, which was then incubated for an additional 20 h. The used concentrations of the substances represented the subinhibitory and minimum inhibitory concentrations for metabolic activity (subCBM80, MICBM80; subCMPB80, MICMPB80). Both setups contained a positive control of the bacterial growth (inoculum mixed with sterile TSB + 1% Glc medium) and a control monitoring microbial contamination (sterile medium). Non-treated wells were used as a positive control for comparison between non-treated and treated biofilm mass.
(§8) Prior to the imaging, the wells were stained with the LIVE/DEAD® BacLight™ Bacterial Viability Kit (Thermo Fisher Scientific, MA, USA) following the manufacturer’s guidelines and Drago et al.. […]

[5] = tested on: E. coli 683/17; experiment: CLSM analysis, biofilm removal (preformed biofilm); format: cell-based, Escherichia coli; conditions: for Thickness (µm) subCBM80: substance at subinhibitory concentration
Procedure: as §5, §6, §7, §8

[6] = tested on: S. aureus 1241; experiment: CLSM analysis, biofilm removal (preformed biofilm); format: cell-based, Staphylococcus aureus; conditions: 20 h exposure, mean ± SD; for Thickness (µm) MICBM80: substance at its MIC; for Thickness (µm) subCBM80: substance at subinhibitory concentration
Procedure: as §5, §6, §7, §8

[7] = tested on: S. aureus 816; experiment: CLSM analysis, biofilm removal (preformed biofilm); format: cell-based, Staphylococcus aureus; conditions: for proportion of membrane-compromised cells: 20 h; for Thickness (µm) subCBM80: substance at subinhibitory concentration
Procedure: as §5, §6, §7, §8

[8] = 20 h, subinhibitory concentration
[9] = preformed biofilm, 20 h exposure, mean ± SD
[10] = preformed biofilm, 20 h exposure, substance at its MIC, mean ± SD

Row | Compound | MICPC80 [1] [µg/mL] | MICPC80 [2] [µg/mL] | maximal achieved inhibition (MICBF80 not reached) ([3]; within tested concentrations) [%] | MICBF80 [3] [µg/mL] | proportion of membrane-compromised cells [4, 8] | Thickness (µm) subCBM80 [4, 9] [µm] | proportion of membrane-compromised cells [5, 8] | Thickness (µm) subCBM80 [5, 9] [µm] | Thickness (µm) MICBM80 [6] [µm] | Thickness (µm) subCBM80 [6] [µm] | proportion of membrane-compromised cells ([7]; subinhibitory concentration) | Thickness (µm) subCBM80 [7, 9] [µm] | Thickness (µm) MICBM80 [4, 10] [µm] | Thickness (µm) MICBM80 [5, 10] [µm] | proportion of membrane-compromised cells ([7]; MIC) | Thickness (µm) MICBM80 [7, 10] [µm]
1 | CC(=O)c1c(O)c(C)c(O)c2c1OC1=CC(=O)C(C(C)=O)C(=O)C12C (single isomer, unassigned; (+)) [UA, (+)-usnic acid] | 0.24 | 0.24 | 47 | > 31.3 | up to 40% | 254 ± 81.8 | up to 40% | 285 ± 38.5 | 210 ± 32.5 | 251 ± 15.7 | up to 40% | 152 ± 68.6 | – | – | – | –
2 | CC(=O)N[C@@H](CS)C(=O)O [NAC, N-Acetyl-L-cysteine] | 3130 | 3130 | – | 6250 | – | 181 ± 33.7 | – | 128 ± 31.6 | 253 ± 44.4 | 266 ± 37.9 | – | 247 ± 64.7 | 222 ± 68.8 | 153 ± 33.3 | up to 20% | 156 ± 80.4
